Assay results: PMC9386913 (Arthritis Research & Therapy, 2022)
Where two headings read alike, the source gives them in different places.

Legend:
[1] = Plasma pharmacokinetics in MAD study (LC-MS/MS); assay type: in vivo, human (healthy volunteers); details: for Cmax: human, plasma
Description: PK parameters were calculated via non-compartmental methodology using Phoenix version 7 or higher (Princeton, NJ).

[2] = test system: LPS-stimulated whole blood; assay: Ex vivo LPS-stimulated whole blood cytokine/chemokine production (TruCulture) in dosed subjects; parameters: species or system human (healthy volunteers)
Description: Briefly, blood (1 mL) was drawn into the LPS-containing TruCulture tubes. The tubes were placed in a 37 °C block thermostat for 24 ± 1 h and then frozen at −70 °C. Media mixed with plasma were analyzed for TNF and other cytokine/chemokine levels. TNF inhibition in ex vivo LPS-stimulated blood was measured as a percentage change in TNF levels from baseline. Percentage change in other cytokines and chemokines in the ex vivo stimulation assay was also measured with respect to their baseline levels.

[3] = test system: LPS-stimulated PBMCs; assay: Cytokine production in LPS-stimulated PBMCs; assay type: cell-based, human; details: 0.3, 1, and 3 μM
[4] = test system: LPS-stimulated monocytes; assay: Cytokine secretion in LPS-stimulated monocytes; assay type: cell-based, human; details: LPS 100 ng/mL 4 or 24 h
Description: (§1) Culture supernatants were centrifuged, and the supernatants were collected and analyzed for selected cytokines and chemokines using Milliplex Magpix assays (catalog HCYTO – 60K; Millipore Sigma, Burlington, MA). Levels of proinflammatory cytokines TNF and MCP-1 for the monocytes and macrophages were quantified using specific ELISA kits (R&D, NJ, USA) according to the manufacturer’s recommendations. Data were processed using Milliplex Analyst, and significance was calculated using the one-way analysis of variance (ANOVA) with Dunnett’s post-test algorithms in GraphPad Prism version 5.01. PBMCs were isolated from buffy coat using the Ficoll gradient method. Monocytes were isolated using the […] Technologies Inc. kit (catalog number 19058; Vancouver, BC, Canada). […] Macrophages were then plated and allowed to acclimate for 24 h. […] Medium from the cultured macrophages was used for cytokine analysis using Magpix magnetic beads (Catalog HCYTO – 60K; Millipore Sigma, Burlington, MA). Cell pellets from the macrophage cultures were collected for western blot analysis using capillary electrophoresis to analyze the effect on TTP, with glyceraldehyde 3-phosphate dehydrogenase (GAPDH) used as the house-keeping protein in the capillary electrophoresis. Antibodies against total TTP (CST#7162 Rabbit Monoclonal antibody) and GAPDH (CST#5174 Rabbit Monoclonal antibody) were used to detect the respective proteins.

[5] = test system: LPS-stimulated macrophages; assay: Cytokine secretion in LPS-stimulated monocyte-derived macrophages; assay type: cell-based, human; details: LPS 100 ng/mL 4 or 24 h
Description: as §1

[6] = test system: TTP; assay: Total TTP protein by capillary electrophoresis in LPS-stimulated macrophages; assay type: cell-based, human; details: 4 h or 24 h
Description: Monocytes and macrophages were pre-treated for 1 h with DMSO or compound, followed by LPS stimulation (100 ng/mL) for 4 or 24 h (includes 1 h pre-treatment). Medium from the cultured macrophages was used for cytokine analysis using Magpix magnetic beads (Catalog HCYTO – 60K; Millipore Sigma, Burlington, MA). Cell pellets from the macrophage cultures were collected for western blot analysis using capillary electrophoresis to analyze the effect on TTP, with glyceraldehyde 3-phosphate dehydrogenase (GAPDH) used as the house-keeping protein in the capillary electrophoresis. Antibodies against total TTP (CST#7162 Rabbit Monoclonal antibody) and GAPDH (CST#5174 Rabbit Monoclonal antibody) were used to detect the respective proteins.

[7] = test system: TNF, IL-6, and IL-1β transcripts; assay: Cytokine mRNA decay in LPS-stimulated macrophages with actinomycin D; assay type: cell-based, human; details: 1 μM CC-99677 with 10 μg/mL actinomycin D, normalized to GAPDH
Text: After each time point, macrophages were washed with PBS and lysed with RLT Plus Lysis Buffer (Qiagen, Germantown, MD). RNA was isolated using the QiaCube, followed by cDNA preparation using Superscript IV enzyme mix (Invitrogen, Thermo Fisher, Waltham, MA).

[8] = test system: LPS-stimulated PBMCs; details: cited from earlier work
[9] = Peripheral blood leukocyte and subtype counts in MAD study; details: 150 mg, pre-dose baseline through 14-day dosing (n = 5)
[10] = test system: THP-1 cells; assay: In vitro tachyphylaxis model: daily treatment of THP-1 cells, LPS-stimulated TNF; details: up to 14 days, 0.1 or 1 μM CC-99677 or 1 μM p38 inhibitors
[11] = 150-mg dose level cohort, day 5
[12] = continuous dosing at 120 and 150 mg

In the case of `CCOCc1cnc(Cl)nc1Oc1ccc2c(ccc3sc4c(c32)NC[C@@H](C)NC4=O)n1` [CC-99677], the “Dose proportionality of concentration and exposure” value ([1]; 10 to 150 mg once daily over 14 days) is reported as “linear, dose-proportional increase in concentration and exposure”, the Day-to-day plasma accumulation ([1]; all 5 dose levels, minimal detectable plasma CC-99677 > 24 h after dosing) is reported as “limited to no day-to-day plasma accumulation” and the Cmax ([1]; oral, 150-mg dose level, read-out: Geometric mean Cmax expressed as molar concentration) is reported as about 800 nM. The Cmax ([1]; day 1, 10 mg oral, read-out: Geometric mean peak concentration (Cmax, CV%)) was 20.5 ng/mL, the Cmax ([1]; day 1, 30 mg oral, read-out: Geometric mean peak concentration (Cmax, CV%)) was 63.4 ng/mL and the Cmax ([1]; day 1, 60 mg oral, read-out: Geometric mean peak concentration (Cmax, CV%)) was 150 ng/mL. For the same molecule, the Cmax ([1]; day 1, 120 mg oral, read-out: Geometric mean peak concentration (Cmax, CV%)) was 269 ng/mL, the Cmax ([1]; day 1, 150 mg oral, read-out: Geometric mean peak concentration (Cmax, CV%)) was 257 ng/mL and the “Onset of reduction of TNF production” value ([2]; 60-, 120-, and 150-mg dose cohorts) was “reduced as early as day 2”. The “Maximal TNF inhibition (percentage change from baseline)” value ([2]; 150-mg dose cohort) was 70%, the “TNF inhibition maintained during the dosing period” value ([2]; 150-mg dose cohort, 14 days) was “approximately 70%” and the “Maximal inhibition of IL-6” value [2, 11] was 50%. For the same molecule, the “Maximal inhibition of MIP-1α” value [2, 11] was 50%, the “TNF inhibition, ex vivo LPS-stimulated blood” value ([2]; all doses > 10 mg) was “inhibited TNF at all doses > 10 mg, and this inhibition was sustained until day 14” and the MIP-1α production [2, 12] was “inhibited with continuous dosing”. For the same molecule, the MIP-1β production [2, 12] was “inhibited with continuous dosing”, the GM-CSF production ([3]; PBMCs from AS patients and healthy volunteers) was “inhibited GM-CSF in PBMCs from AS patients to similar levels as those seen in healthy volunteers” and the TNF production ([3]; PBMCs from AS patients, 1 h pretreatment, LPS 50 ng/mL) was “concentration-dependent inhibition of TNF production”. The IL-1β secretion [4] was “concentration-dependent inhibition”, the IL-6 secretion [4] was “concentration-dependent inhibition” and the TNF secretion [4] was “strong concentration-dependent inhibition”. For the same molecule, the TNF secretion [5] was “strong concentration-dependent inhibition”, the IL-1β secretion ([5]; more potent than in monocytes) was “concentration-dependent inhibition” and the IL-6 secretion ([5]; more potent than in monocytes) was “concentration-dependent inhibition”. The “Total TTP levels (surrogate for TTP phosphorylation state)” value [6] was “dose-dependent reduction in total TTP levels”, the “mRNA decay of TNF, IL-6, and IL-1β transcripts” value [7] was “significantly greater mRNA decay compared with actinomycin D alone” and the “Inflammatory cytokine production including TNF, IL-6, and GM-CSF” value ([8]; LPS-stimulated healthy donor PBMCs) was “inhibits inflammatory cytokine production”. For the same molecule, the “IL-1β inhibition in PBMCs after LPS stimulation” value ([8]; PBMCs) was “no inhibition of IL-1β was observed”, the “Mean WBC, lymphocyte, monocyte, and neutrophil counts” value [9] was “comparable to placebo” and the “LPS-stimulated TNF production under continued daily treatment” value [10] was “suppressed TNF production throughout the treatment period”.
